According to paper PMC9060900 (RSC Advances, 2019):

Target: T1, TMV coat protein (TMV-CP; TMV CP) (Tobacco mosaic virus (vulgare), UniProt P69687)
T1 sequence (P69687 2-159): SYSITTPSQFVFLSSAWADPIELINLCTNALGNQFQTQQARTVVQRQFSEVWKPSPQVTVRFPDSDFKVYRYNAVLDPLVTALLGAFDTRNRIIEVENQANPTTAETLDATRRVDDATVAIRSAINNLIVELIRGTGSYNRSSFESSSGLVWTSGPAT
Assay: microscale thermophoresis
Format: binding

Cc1csc(/C=C/C(=O)c2ccccc2OCCSc2nnc(-c3ccccc3)c(-c3ccccc3)n2)n1 [4o]
Kd: 245 ± 63.9 µM
